From ChEMBL document CHEMBL1201862, “PubChem BioAssay data set” (2004)
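Growth conditions: 96-well plates. Treatment: test compound, 48 hours, 5 concentrations. Analysis: linear interpolation between bracketing concentrations; unreached endpoints set to highest concentration. Abbreviation: GI50, concentration required for 50% inhibition of growth.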 The source made the active and inactive calls. No stated cut-off is given here; in the data, active = GI50 up to about 1.1 µM and inactive = higher. Where a SMILES comes first, the peptide text is derived from it. The star is where a group is joined. Cbz = O=C(OCc1ccccc1)*; Boc = CC(C)(C)OC(=O)*; tBu = CC(C)(C)*

How the values were obtained:
Experiment in all cases: growth of human tumour cells (NCI), 48 h
DU-145 = test system: DU-145
SF-268 = test system: SF-268
RPMI-8226 = test system: RPMI-8226
SR = test system: SR
PC-3 = test system: PC-3
SK-OV-3 = test system: SK-OV-3
SNB-19 = test system: SNB-19
HOP-92 = test system: HOP-92
EKVX = test system: EKVX
OVCAR-5 = test system: OVCAR-5
HT-29 = test system: HT-29
T47D = test system: T47D
OVCAR-3 = test system: OVCAR-3
NCI-H522 = test system: NCI-H522
HCC 2998 = test system: HCC 2998
CAKI-1 = test system: CAKI-1
K562 = test system: K562
SW-620 = test system: SW-620
OVCAR-8 = test system: OVCAR-8
UACC-257 = test system: UACC-257

SMILES	GI50 (DU-145)	GI50 (SF-268)	GI50 (RPMI-8226)	GI50 (SR)	GI50 (PC-3)	GI50 (SK-OV-3)	GI50 (SNB-19)	GI50 (HOP-92)	GI50 (EKVX)	GI50 (OVCAR-5)	GI50 (HT-29)	GI50 (T47D)	GI50 (OVCAR-3)	GI50 (NCI-H522)	GI50 (HCC 2998)	GI50 (CAKI-1)	GI50 (K562)	GI50 (SW-620)	GI50 (OVCAR-8)	GI50 (UACC-257)
CC(OC(C)(C)C)C(NC(=O)C(CCCCNC(=O)OC(C)(C)C)NC(=O)C(Cc1c[nH]c2ccccc12)NC(=O)C(Cc1ccccc1)NC(=O)OCc1ccccc1)C(=O)NC(Cc1ccccc1)C(=O)O (stereo not given) (Cbz-FWK(Boc)T(tBu)F-OH; configuration not given here)	61.1 µM (inactive)	45.7 µM (inactive)	43.5 µM (inactive)	44.4 µM (inactive)	34.8 µM (inactive)	39.5 µM (inactive)	37.7 µM (inactive)	> 100 µM (inactive)	> 100 µM (inactive)	33.1 µM (inactive)	33.5 µM (inactive)	28.4 µM (inactive)	32.1 µM (inactive)	27.9 µM (inactive)	30.8 µM (inactive)	> 100 µM (inactive)	28.8 µM (inactive)	75.2 µM (inactive)	95.1 µM (inactive)	> 100 µM (inactive)
O[C@@]1(C#Cc2ccc3c(c2)OCO3)CCC[C@H]1NCc1ccccc1	47.2 µM (inactive)	36.7 µM (inactive)	24 µM (inactive)	23.2 µM (inactive)	19.2 µM (inactive)	35.7 µM (inactive)	22.5 µM (inactive)	13.7 µM (inactive)	33.5 µM (inactive)	34.8 µM (inactive)	22.9 µM (inactive)	18.7 µM (inactive)	20.4 µM (inactive)	15.3 µM (inactive)	17.1 µM (inactive)	28.4 µM (inactive)	18.7 µM (inactive)	31.4 µM (inactive)	22.8 µM (inactive)	24.2 µM (inactive)
O=C1Nc2ccc(Br)cc2/C1=N/c1ccc2c(c1)OCO2	34 µM (inactive)	35.2 µM (inactive)	18.5 µM (inactive)	15.1 µM (inactive)	16.3 µM (inactive)	31.8 µM (inactive)	74.5 µM (inactive)	50.1 µM (inactive)	25.8 µM (inactive)	22.8 µM (inactive)	17.4 µM (inactive)	35.9 µM (inactive)	22.1 µM (inactive)	19.1 µM (inactive)	15.7 µM (inactive)	20.3 µM (inactive)	24.4 µM (inactive)	22.4 µM (inactive)	32.5 µM (inactive)	18.3 µM (inactive)
CCOC(=O)c1nc2cc(C(F)(F)F)ccc2nc1Nc1ccc(OC)c(OC)c1	> 100 µM (inactive)	> 100 µM (inactive)	> 100 µM (inactive)	> 100 µM (inactive)	> 100 µM (inactive)	> 100 µM (inactive)	> 100 µM (inactive)	> 100 µM (inactive)	> 100 µM (inactive)	> 100 µM (inactive)	> 100 µM (inactive)	71.3 µM (inactive)	> 100 µM (inactive)	> 100 µM (inactive)	> 100 µM (inactive)	> 100 µM (inactive)	> 100 µM (inactive)	> 100 µM (inactive)	> 100 µM (inactive)	> 100 µM (inactive)
CCOC(=O)/C=C(/C(=O)OCC)n1ccc(N)nc1=O	> 100 µM (inactive)	> 100 µM (inactive)	> 100 µM (inactive)	89.1 µM (inactive)	> 100 µM (inactive)	> 100 µM (inactive)	> 100 µM (inactive)	53.3 µM (inactive)	84.9 µM (inactive)	47.9 µM (inactive)	62.1 µM (inactive)	> 100 µM (inactive)	> 100 µM (inactive)	23.6 µM (inactive)	> 100 µM (inactive)	37 µM (inactive)	> 100 µM (inactive)	72.3 µM (inactive)	> 100 µM (inactive)	> 100 µM (inactive)
ClC(Cl)(Cl)C1=N[C@H]2[C@H](Br)[C@@H]3O[C@@H](c4ccccc4)[C@H](c4ccccc4)O[C@@H]3[C@H]2O1	26.5 µM (inactive)	18.4 µM (inactive)	16.2 µM (inactive)	21.1 µM (inactive)	16 µM (inactive)	18.5 µM (inactive)	27.4 µM (inactive)	16.5 µM (inactive)	26.2 µM (inactive)	18.9 µM (inactive)	20.5 µM (inactive)	30.2 µM (inactive)	16.6 µM (inactive)	10.9 µM (inactive)	15.2 µM (inactive)	16 µM (inactive)	21.2 µM (inactive)	19.6 µM (inactive)	17.6 µM (inactive)	18.3 µM (inactive)
CC1OC(OC2C(O[C@H]3CC[C@@]4(C)C(=CC[C@H]5[C@@H]6C[C@@H]7O[C@]8(CC[C@@H](C)CO8)[C@@H](C)[C@@H]7[C@@]6(C)CC[C@@H]54)C3)OC(CO)C(OC3OC(CO)C(O)C3O)C2O)C(O)C(O)C1O (stereo not given in full)	0.984 µM (active)	0.841 µM (active)	0.724 µM (active)	0.695 µM (active)	0.776 µM (active)	0.94 µM (active)	0.762 µM (active)	1.01 µM (active)	0.885 µM (active)	0.8 µM (active)	0.805 µM (active)	1.12 µM (active)	0.918 µM (active)	0.995 µM (active)	0.366 µM (active)	0.867 µM (active)	1.23 µM (inactive)	0.766 µM (active)	0.535 µM (active)	0.908 µM (active)
C=CC[C@@]1(C)CCCCCCCCC[C@@](C)(CC=C)C1=O	50.2 µM (inactive)	36.4 µM (inactive)	28.3 µM (inactive)	27.5 µM (inactive)	37.1 µM (inactive)	41.1 µM (inactive)	20.5 µM (inactive)	46.8 µM (inactive)	38.4 µM (inactive)	> 100 µM (inactive)	18.7 µM (inactive)	21.2 µM (inactive)	19 µM (inactive)	35.2 µM (inactive)	17.4 µM (inactive)	35.4 µM (inactive)	28.7 µM (inactive)	24.6 µM (inactive)	21.5 µM (inactive)	25.2 µM (inactive)
N#Cc1nnc2c3c(-c4ccc(Cl)cc4)c(C#N)c(O)nc3nn2c1N	3.88 µM (inactive)	3.26 µM (inactive)	8.05 µM (inactive)	2.14 µM (inactive)	1.45 µM (inactive)	4.61 µM (inactive)	3.25 µM (inactive)	5.2 µM (inactive)	12.9 µM (inactive)	24.8 µM (inactive)	5 µM (inactive)	1.17 µM (inactive)	3.27 µM (inactive)	1.62 µM (inactive)	3.14 µM (inactive)	5.6 µM (inactive)	7.33 µM (inactive)	5.46 µM (inactive)	4.92 µM (inactive)	15.4 µM (inactive)
Cc1c(C#N)c2nnn(-c3cccc(Cl)c3)c(=O)n2c1-c1ccccc1	3.46 µM (inactive)	6.81 µM (inactive)	0.637 µM (active)	0.301 µM (active)	0.875 µM (active)	3.08 µM (inactive)	10.3 µM (inactive)	26 µM (inactive)	5.69 µM (inactive)	3.75 µM (inactive)	1.28 µM (inactive)	4.25 µM (inactive)	1.65 µM (inactive)	1.93 µM (inactive)	3.48 µM (inactive)	6.62 µM (inactive)	0.541 µM (active)	4.3 µM (inactive)	5.31 µM (inactive)	26.3 µM (inactive)
C/C=C(/C)C(=O)O[C@H]1CCN2CC=C(COC(=O)[C@@](O)([C@H](C)OC)C(C)(C)O)[C@H]12	> 100 µM (inactive)	> 100 µM (inactive)	> 100 µM (inactive)	> 100 µM (inactive)	> 100 µM (inactive)	> 100 µM (inactive)	> 100 µM (inactive)	> 100 µM (inactive)	> 100 µM (inactive)	> 100 µM (inactive)	> 100 µM (inactive)	> 100 µM (inactive)	> 100 µM (inactive)	> 100 µM (inactive)	> 100 µM (inactive)	> 100 µM (inactive)	> 100 µM (inactive)	> 100 µM (inactive)	> 100 µM (inactive)	> 100 µM (inactive)
COC(=O)C(Cc1ccc2c(c1)CCCC2)Cc1cc2c(cc1C(O)OC)CCC2 (stereo not given)	> 100 µM (inactive)	49.9 µM (inactive)	27.9 µM (inactive)	38.5 µM (inactive)	19.5 µM (inactive)	> 100 µM (inactive)	> 100 µM (inactive)	18.5 µM (inactive)	39.4 µM (inactive)	80.9 µM (inactive)	27.7 µM (inactive)	29.3 µM (inactive)	89.7 µM (inactive)	50.1 µM (inactive)	57.9 µM (inactive)	> 100 µM (inactive)	35.1 µM (inactive)	67.1 µM (inactive)	> 100 µM (inactive)	14.7 µM (inactive)
C=C1CC(O)C2C(=C)C(=O)OC2C2C(C)C(=O)CC12 (stereo not given)	15.3 µM (inactive)	22.2 µM (inactive)	14 µM (inactive)	9.14 µM (inactive)	36.6 µM (inactive)	33 µM (inactive)	18.8 µM (inactive)	13 µM (inactive)	15.4 µM (inactive)	16.1 µM (inactive)	18.7 µM (inactive)	16.9 µM (inactive)	11.6 µM (inactive)	5.16 µM (inactive)	20 µM (inactive)	4.57 µM (inactive)	5.98 µM (inactive)	5.12 µM (inactive)	21.3 µM (inactive)	12.6 µM (inactive)
